Experimental data: US20100003190A1, “Method for protecting renal tubular epithelial cells from radiocontrast nephropathy (RCN)” (Caritas St. Elizabeth's Medical Center of Boston, Inc., priority 2006, published 2010)

Experiments:
[1] = MTT cell viability of HK-2 cells exposed to iodinated radiocontrast media, with or without rhEpo; type: cell-based, human; settings: human, HK-2 cells (proximal tubular cell line), HK-2 cells, 100 mg iodine/mL contrast media, read-out: reduction of cell viability (MTT); for cytotoxicity at 1 h, 100 mg iodine/mL: 1-hour incubation; for cytotoxicity at 6 h, 100 mg iodine/mL: 6-hour incubation
Method: (§1) HK-2, a proximal tubular cell line derived from normal human kidney, and LLC-PK1, a proximal renal tubular cell line of porcine origin, were obtained from the American Type Culture Collection ATCC (Manassas, Va.). HK-2 cells were grown in DMEM media (GIBCO) supplemented with 10% FBS (Hyclone), 15 mM HEPES, 2 mM L-glutamine, 50 U/ml penicillin, 50 μg/ml streptomycin (GIBCO), 0.1 μg/ml hydrocortisone, 5 μg/ml insulin, and 5 μg/ml apotransferrin (Sigma, St. Louis, Mo.). LLC-PK1 cells were maintained in medium 199 (GIBCO) supplemented with 10% FBS and penicillin-streptomycin. For the planned experiments, cells were seeded on 24-well plates at a density of 10^4 cells/cm^2 and cultured at 37° C. for 24 hours.
(§2) […] The cell viability was assessed by the mitochondrial activity in reducing MTT to form […] using a commercially available kit (Cell Proliferation Kit, Roche, Penzberg, Germany). In brief, cells were incubated at 37° C. for 4 hours in 200 μl of serum-free, phenol red free medium containing 20 μl of the MTT labeling reagent. 200 μl of solubilization solution were added to each well and cells were incubated at 37° C. for 24 hours. Aliquots of the incubation medium were transferred to a 96-well microplate and absorbance was measured at 570 nm with the reference of 690 nm using a microplate reader (MRX-II, Dynex).

HK-2 cells = assay: as above; type: cell-based, human
Method: as §1, §2

LLC-PK1 cells = assay: MTT cell viability of LLC-PK1 cells exposed to iodinated radiocontrast media, with or without rhEpo or darbepoetin; type: cell-based, porcine; settings: LLC-PK1 cells (data not shown)
Method: as §1
Cells were exposed to iodinated radiocontrast media (100 mg iodine/ml) for 6 hours at 37° C., then washed twice with Dulbecco PBS solution, and incubated in serum-free culture medium for 24 hours at 37° C. The cell viability was assessed by the mitochondrial activity in reducing MTT to form […] using a commercially available kit (Cell Proliferation Kit, Roche, Penzberg, Germany). […] Aliquots of the incubation medium were transferred to a 96-well microplate and absorbance was measured at 570 nm with the reference of 690 nm using a microplate reader (MRX-II, Dynex).

caspase-3 = assay: Caspase-3 activity (Caspase-Glo 3/7) in LLC-PK1 cells after radiocontrast media; type: cell-based, porcine
Method: Activity of caspase-3 was measured by the degradation of subtype-specific peptide substrate after exposure of LLC-PK1 cells to iohexol or iodixanol. In brief, cells were seeded in 96-well plates and treated with radiocontrast media as described. After removal of the media, 100 μl of the Caspase-Glo 3/7 reagent (Promega, Madison, Wis.) were added to each well, and cells were incubated at room temperature for 1 hour. Luminescence of each sample was measured on a luminometer (Lumat LB9507, EGG Berthold). As a control for specificity, DEVD-CHO (Calbiochem, EMD Biosciences), a caspase-3 inhibitor, was added to appropriate wells during incubation in a final concentration of 50 μM. In parallel, cells were stained in wells with crystal violet and the absorption at 600 nm was measured. For each well, the luminometer data were normalized to the level of crystal violet absorption.

[2] = patients with chronic renal failure; cited from earlier work
[3] = renal tubular epithelial cells, co-treatment, cell line not given

CC(=O)Nc1c(I)c(NC(C)=O)c(I)c(C(=O)O)c1I [diatrizoate, 3,5-Diacetamido-2,4,6-triiodobenzoic acid]
cytotoxicity at 1 h, 100 mg iodine/mL [1]: 44%
cytotoxicity at 6 h, 100 mg iodine/mL [1]: 99%
toxic effects on renal tubular cells, comparison between contrast media (HK-2 cells; HK-2 cells, 6-hour incubation): more toxicity

CC(=O)N(CC(O)CN(C(C)=O)c1c(I)c(C(=O)NCC(O)CO)c(I)c(C(=O)NCC(O)CO)c1I)c1c(I)c(C(=O)NCC(O)CO)c(I)c(C(=O)NCC(O)CO)c1I (stereo not shown) [iodixanol]
cell damage by radio-contrast agent (LLC-PK1 cells): marked cell damage
cytotoxicity at 1 h, 100 mg iodine/mL [1]: 33%
cytotoxicity at 6 h, 100 mg iodine/mL [1]: 48%
effect on caspase-3 activity (caspase-3; LLC-PK1 cells, 100 mg iodine/ml): induced an increase

CC(=O)N(CC(O)CO)c1c(I)c(C(=O)NCC(O)CO)c(I)c(C(=O)NCC(O)CO)c1I (stereo not shown) [iohexol]
cell damage by radio-contrast agent (LLC-PK1 cells): marked cell damage
cytotoxicity at 1 h, 100 mg iodine/mL [1]: 36%
cytotoxicity at 6 h, 100 mg iodine/mL [1]: 60%

C[C@H](O)C(=O)Nc1c(I)c(C(=O)NC(CO)CO)c(I)c(C(=O)NC(CO)CO)c1I [iopamidol]
elimination half-life [2]: about 70 hours

DEVD-CHO
effect on radiocontrast-induced increase in caspase-3 activity (caspase-3; LLC-PK1 cells, iohexol or iodixanol, co-treatment with inhibitor 50 μM): abrogated

rhEpo: Recombinant human erythropoietin, a widely available agent for the treatment of anemia; Epoetin alfa (EPOGEN) purchased from Amgen
protective effect against cytotoxic effect of iodixanol (HK-2 cells; HK-2 cells, 200 U/ml rhEpo, iodixanol 100 mg iodine/ml): similarly protective
protective effect against cellular toxicity of iohexol (HK-2 cells; HK-2 cells, 6 hours iohexol, three concentrations of rhEpo (0-400 U/ml), dose dependent): partially reversed
concentration providing ceiling of protective effect (HK-2 cells; HK-2 cells, iohexol): 200 U/ml
reduction of toxicity of iodixanol (MTT cell viability assay) (HK-2 cells; [3]): 20%
reduction of toxicity of iohexol (MTT cell viability assay) (HK-2 cells; [3]): 20%
effect on iohexol-induced caspase-3 activation (caspase-3; LLC-PK1 cells, co-treatment, rhEpo 200 U/ml): suppressed
reduction of the induction of caspase-3 activation by iohexol (caspase-3; co-treatment of cells with rhEpo): 20%
